The values below come from paper PMC9919437 (Molecules, 2023).

Entries after “also recorded” stand apart in the source; their conditions may differ. Where only a bound is given, the exact number is not on record here.

Series [1] addresses BC2L-C-Nt. More on the design: method as in PMID 36174276. The conditions noted are these: SPR, BC2L-C-Nt immobilized on CM5 chip; said not to correlate with ITC; read-out: apparent Kd; cited from earlier work. In general terms: Surface plasmon resonance follows binding to a sensor surface in real time, without labels.
On the set-up of series [2]: method as in PMID 36174276. The conditions noted are these: cited from earlier work.
A short description of series [3]: Water solubility. Format: physicochemical. The following applies: fully soluble at least up to.
Series [4] concerns the molecule itself. The experiment in a line: crystal structure; hexagonal crystal form (P6_3), one protomer in the asymmetric unit, trimer by the 3-fold crystallographic symmetry; cocrystals with H-type 1 oligosaccharide soaked with 3 mM compound 3 in 2.47 M sodium malonate pH 7.0 for 48 h at 19 °C.

With `C[C@@H]1O[C@H](NC(=O)c2ccc(-c3cccc(N)c3)o2)[C@@H](O)[C@H](O)[C@@H]1O` [compound 2], the Kd in series [1] is 2.4 mM. In addition, in series [2], the “water solubility (in words)” value was “very low water solubility; also recorded: water-insoluble”.
The solubility is how much of the substance goes into solution per volume. A lower solubility goes with a poorly soluble substance. On to `C[C@@H]1O[C@H](NC(=O)c2ccc(-c3cccc(CN)c3)o2)[C@@H](O)[C@H](O)[C@@H]1O` [compound 3], for which the solubility in series [3] was not below 2000 µM.
Molecule `NCc1cccc(-c2ccc(C(=O)NC3OC(CO)C(O)C(O)C3O)o2)c1` (stereo not drawn) [compound 4] gave a solubility in series [3] not below 2000 µM.
For `C[C@@H]1O[C@H](NC(=O)c2ccco2)[C@@H](O)[C@H](O)[C@@H]1O` [compound 17, Furan-2-carboxamido-β-L-fucopyranose], the solubility in series [3] is not below 2000 µM.

B1: N-terminal domain of the lectin BC2L-C from Burkholderia cenocepacia (domain or fragment)
chain: MPLLSASIVSAPVVTSETYVDIPGLYLDVAKAGIRDGKLQVILNVPTPYATGNNFPGIYFAIATNQGVVADGCFTYSSKVPESTGRMPFTLVATIDVGSGVTFVKGQWKSVRGSAMHIDSYASLSAIWGTAA
notes: also called BC2L-C-Nt; BC2L-C N-terminal domain; not shown: expression tag, N-terminal, cleaved
As usually defined, the stoichiometry N is a count of units in the complex or per binding partner. As for B1, the “stoichiometry N” value in series [4] turned out to be 3.
